Experimental findings from DBAASP are described below.

Structures are written as SMILES. Converted amounts (≈) assume the structure as drawn.

What all share (assay): ≥ marks a high value that may be exact or a test limit, other limits are often not marked, values filed in µg/mL are converted to µM
Assay [1] relates to Staphylococcus aureus.
Assay [2] deals with Bacillus cereus.
In assay [3] the test system is Escherichia coli.
Assay [4] concerns Escherichia coli ATCC 25922.
The subject of assay [5] is Staphylococcus aureus ATCC 29213.
Assay [6] relates to Pseudomonas aeruginosa ATCC 27853.
The subject of assay [7] is Candida albicans ATCC 90028.
Assay [8] deals with Candida albicans.
The test system of assay [9] is Staphylococcus aureus ATCC 25923.
Assay [10] concerns Candida albicans ATCC 2002.

As a reminder, the MIC is the lowest concentration that inhibits growth of the organism. The low end stands for a more susceptible organism, the high end for a less susceptible organism. `CC(C)C[C@H](NC(=O)[C@@H](N)Cc1ccccc1)C(=O)NCC(=O)N[C@@H](CCCCN)C(=O)N[C@H](C(=O)N[C@@H](Cc1ccccc1)C(=O)N[C@@H](CCCCN)C(=O)NCC(=O)N[C@@H](C)C(=O)N[C@@H](CO)C(=O)N[C@@H](CCCCN)C(=O)N[C@H](C(=O)N[C@@H](Cc1ccccc1)C(=O)NCC(=O)N[C@@H](C)C(=O)N[C@H](C(=O)N[C@@H](Cc1ccccc1)C(=O)NCC(=O)N[C@@H](CCCCN)C(=O)N[C@H](C(=O)O)C(C)C)C(C)C)C(C)C)C(C)C` [FLGKVFKGASKVFGAVFGKV]: the MIC was more than 123 µM in [1], not below 61.3 µM in [2] and 15.3 µM (≈ 32 µg/mL) in assay [3].
As for `CC[C@H](C)[C@H](NC(=O)[C@H](CCCN=C(N)N)NC(=O)[C@H](CCCCN)NC(=O)[C@@H](NC(=O)[C@H](CCCCN)NC(=O)[C@H](CCCN=C(N)N)NC(=O)[C@@H](N)CCCCN)C(C)C)C(=O)N[C@@H](CCCCN)C(=O)N[C@@H](CCCCN)C(=O)N[C@@H](Cc1ccccc1)C(=O)N[C@@H](CC(C)C)C(=O)N[C@@H](CCCN=C(N)N)C(=O)O` [KRKVKRIKKFLR], the MIC worked out at 0.625 µM (≈ 1 µg/mL) in assay [4], 20 µM (≈ 32 µg/mL) in assay [5], 2.5 µM (≈ 4 µg/mL) in [6] and 1.25 µM (≈ 2 µg/mL) in [7].
With `CC[C@H](C)[C@H](NC(=O)[C@H](CC(C)C)NC(=O)[C@H](CCCCN)NC(=O)CNC(=O)[C@@H](NC(=O)[C@@H](N)Cc1ccccc1)[C@@H](C)CC)C(=O)N[C@@H](CO)C(=O)N[C@@H](C)C(=O)N[C@@H](C)C(=O)N[C@@H](CO)C(=O)NCC(=O)N[C@@H](CC(C)C)C(=O)N[C@@H](CC(C)C)C(=O)N[C@@H](CO)C(=O)N[C@@H](Cc1cnc[nH]1)C(=O)N[C@@H](CC(C)C)C(N)=O` [FIGKLISAASGLLSHL], the MIC in assay [1] amounted to 9.5 µM (≈ 15.4 µg/mL); in assay [3] it was 38.4 µM (≈ 62.4 µg/mL); in assay [8], 150 µM (≈ 244 µg/mL).
The compound `NCCCC[C@H](NC(=O)[C@H](CCC(=O)O)NC(=O)[C@@H](N)CC(=O)O)C(=O)NCC(=O)N1CCC[C@H]1C(=O)N[C@@H](CCCCN)C(=O)N[C@@H](Cc1c[nH]c2ccccc12)C(=O)N[C@@H](CCCCN)C(=O)N[C@@H](CCCN=C(N)N)C(=O)O` [DEKGPKWKR] returned an MIC in assay [8] of 30.8 µM (≈ 35.2 µg/mL).
On to `CC(=O)N[C@@H](CCCCN)C(=O)N[C@@H](Cc1ccc(O)cc1)C(=O)N[C@H](C(=O)NCC(=O)N[C@@H](CCCCN)C(=O)N[C@@H](CS)C(=O)N[C@@H](Cc1ccc(O)cc1)C(=O)N[C@@H](CCCCN)C(=O)N[C@@H](CCCCN)C(=O)N[C@@H](CCCCN)C(=O)N[C@@H](CC(N)=O)C(=O)N[C@@H](CCC(=O)O)C(=O)N[C@@H](CS)C(=O)N[C@@H](CCCCN)C(N)=O)[C@@H](C)O` [KYTGKCYKKKNECK], for which the MIC in [8] was 2.5 µM (≈ 4.41 µg/mL).
In the case of `CC[C@H](C)[C@@H]1NC(=O)[C@H](CCCCN)NC(=O)[C@@H](NC(=O)[C@H](CCCCN)NC(=O)[C@H](CC(C)C)NC(=O)[C@H](CCCCN)NC(=O)[C@H](CC(=O)O)NC(=O)[C@H](CC(C)C)NC(=O)[C@H](CCSC)NC(=O)[C@H](CCC(N)=O)NC(=O)CNC(=O)[C@H](C)NC(=O)[C@H](CC(C)C)NC(=O)[C@H](CC(N)=O)NC(=O)[C@H](CCCCN)NC(=O)[C@H](C)NC(=O)[C@H](C)NC(=O)[C@H](CC(N)=O)NC(=O)[C@H](CCCCN)NC(=O)[C@@H](NC(=O)[C@@H](NC(=O)[C@H](CC(=O)O)NC(=O)[C@H](CCSC)NC(=O)[C@H](CC(C)C)NC(=O)CN)[C@@H](C)O)C(C)C)CSSC[C@@H](C(=O)O)NC(=O)[C@H](CO)NC(=O)CNC(=O)[C@H]([C@@H](C)O)NC1=O` [GLMDTVKNAAKNLAGQMLDKLKCKITGSC], the values for the MIC in assay [9], in assay [4] and in [7] were more than 200 µM, 50 µM (≈ 153 µg/mL) and not below 100 µM, respectively.
In [10], `CC[C@H](C)[C@H](NC(=O)[C@@H](NC(=O)[C@@H](NC(=O)[C@@H]1CCCN1C(=O)[C@H](Cc1c[nH]c2ccccc12)NC(=O)[C@H](Cc1ccccc1)NC(=O)[C@H](CCCN=C(N)N)NC(=O)[C@H](CCCCN)NC(=O)[C@@H](NC(=O)[C@@H](N)CCCN=C(N)N)[C@@H](C)CC)C(C)C)C(C)C)C(=O)N[C@@H](CCCN=C(N)N)C(=O)O` [RIKRFWPVVIR] gave a minimal inhibitory concentration (MIC) not below 102 µM.
Regarding `CC(C)C[C@H](NC(=O)[C@H](CCCCN)NC(=O)[C@H](Cc1ccccc1)NC(=O)[C@@H](NC(=O)[C@H](CCCCN)NC(=O)CNC(=O)[C@H](CC(C)C)NC(=O)[C@@H](N)Cc1ccccc1)C(C)C)C(=O)N[C@@H](C)C(=O)N[C@@H](CO)C(=O)N[C@@H](CCCCN)C(=O)N[C@H](C(=O)N[C@@H](Cc1ccccc1)C(=O)NCC(=O)N[C@@H](C)C(=O)N[C@H](C(=O)N[C@@H](Cc1ccccc1)C(=O)NCC(=O)N[C@@H](CCCCN)C(=O)N[C@H](C(=O)O)C(C)C)C(C)C)C(C)C` [FLGKVFKLASKVFGAVFGKV], the figures for the MIC in assay [1], in [2] and in [3] were 3.73 µM (≈ 8 µg/mL), 3.73 µM (≈ 8 µg/mL) and 7.47 µM (≈ 16 µg/mL), respectively.
For the compound `CC(C)C[C@H](NC(=O)[C@@H](N)Cc1ccccc1)C(=O)NCC(=O)N[C@H](C(=O)N[C@H](C(=O)N[C@@H](Cc1ccccc1)C(=O)N[C@@H](CCCCN)C(=O)NCC(=O)N[C@@H](C)C(=O)N[C@@H](CO)C(=O)N[C@@H](CCCCN)C(=O)N[C@H](C(=O)N[C@@H](Cc1ccccc1)C(=O)N1CCC[C@H]1C(=O)N[C@@H](C)C(=O)N[C@H](C(=O)N[C@@H](Cc1ccccc1)C(=O)NCC(=O)N[C@@H](CCCCN)C(=O)N[C@H](C(=O)O)C(C)C)C(C)C)C(C)C)C(C)C)C(C)C` [FLGVVFKGASKVFPAVFGKV], the figures for the MIC in assay [1], in [2] and in assay [3] were more than 122 µM, not below 122 µM and more than 122 µM, respectively.
Consider `CC[C@H](C)[C@H](NC(=O)[C@H](CCCCN)NC(=O)[C@H](CS)NC(=O)[C@H](C)NC(=O)[C@@H](NC(=O)[C@H](Cc1ccccc1)NC(=O)CNC(=O)[C@H](CC(C)C)NC(=O)CNC(=O)[C@@H](NC(=O)[C@H](CCCCN)NC(=O)CNC(=O)[C@H](CC(C)C)NC(=O)[C@H](CC(N)=O)NC(=O)[C@H](CCCCN)NC(=O)[C@H](CC(C)C)NC(=O)[C@@H](NC(=O)[C@H](C)NC(=O)[C@H](CC(C)C)NC(=O)[C@H](CCSC)NC(=O)[C@@H](N)CO)C(C)C)C(C)C)C(C)C)C(=O)N[C@@H](CC(N)=O)C(=O)N[C@@H](CCCCN)C(=O)N[C@@H](CCC(N)=O)C(=O)N[C@@H](CS)C(=O)O` [SMLAVLKNLGKVGLGFVACKINKQC], for which the figures for the minimal inhibitory concentration (MIC) in assay [1], in assay [3] and in assay [8] were 100 µM (≈ 264 µg/mL), 10 µM (≈ 26.4 µg/mL) and 100 µM (≈ 264 µg/mL), respectively.
Regarding `CC(C)C[C@H](NC(=O)[C@H](CCCCN)NC(=O)[C@H](Cc1ccccc1)NC(=O)[C@@H](NC(=O)[C@@H](NC(=O)CNC(=O)[C@H](CC(C)C)NC(=O)[C@@H](N)Cc1ccccc1)C(C)C)C(C)C)C(=O)N[C@@H](C)C(=O)N[C@@H](CO)C(=O)N[C@@H](CCCCN)C(=O)N[C@H](C(=O)N[C@@H](Cc1ccccc1)C(=O)N[C@@H](CCCCN)C(=O)N[C@@H](C)C(=O)N[C@H](C(=O)N[C@@H](Cc1ccccc1)C(=O)NCC(=O)N[C@@H](CCCCN)C(=O)N[C@H](C(=O)O)C(C)C)C(C)C)C(C)C` [FLGVVFKLASKVFKAVFGKV], the MIC in assay [1] is 3.66 µM (≈ 8 µg/mL); in assay [2] it was 3.66 µM (≈ 8 µg/mL); in assay [3], 58.6 µM (≈ 128 µg/mL).
Regarding `CSCC[C@H](N)C(=O)N[C@H](C(=O)N[C@H](C(=O)N[C@@H](Cc1ccccc1)C(=O)N[C@@H](CO)C(=O)N[C@H](C(=O)N1CCC[C@H]1C(=O)N[C@@H](CCCCN)C(=O)N[C@@H](Cc1ccccc1)C(=O)N[C@@H](CCCCN)C(=O)N[C@@H](CO)C(=O)N[C@H](C(=O)N[C@H](C(=O)N[C@@H](C)C(=O)N[C@@H](CCCCN)C(=O)N[C@@H](CC(C)C)C(=O)N[C@@H](CC(C)C)C(=O)N[C@@H](CO)C(=O)N[C@@H](CO)C(=O)N[C@@H](C)C(=O)O)C(C)C)[C@@H](C)O)C(C)C)C(C)C)C(C)C` [MVVFSVPKFKSTVAKLLSSA], the MIC is not below 120 µM in assay [2] and more than 120 µM in assay [3].
Take `CC[C@H](C)[C@H](NC(=O)[C@H](CCCCN)NC(=O)[C@H](CO)NC(=O)[C@H](C)NC(=O)[C@@H](NC(=O)[C@H](Cc1ccccc1)NC(=O)CNC(=O)[C@H](CC(C)C)NC(=O)CNC(=O)[C@@H](NC(=O)[C@H](CCCCN)NC(=O)CNC(=O)[C@H](CC(C)C)NC(=O)[C@H](CC(N)=O)NC(=O)[C@H](CCCCN)NC(=O)[C@H](CC(C)C)NC(=O)[C@@H](NC(=O)[C@H](CO)NC(=O)[C@H](CC(C)C)NC(=O)[C@H](CCSC)NC(=O)[C@@H](N)CO)C(C)C)C(C)C)C(C)C)C(=O)N[C@@H](CC(N)=O)C(=O)N[C@@H](CCCCN)C(=O)N[C@@H](CCC(N)=O)C(=O)N[C@@H](CO)C(=O)O` [SMLSVLKNLGKVGLGFVASKINKQS]: the minimum inhibitory concentration (MIC) was determined as 100 µM (≈ 262 µg/mL) in assay [1], 20 µM (≈ 52.4 µg/mL) in assay [3] and 100 µM (≈ 262 µg/mL) in assay [8].
Consider `CC(C)C[C@H](NC(=O)CNC(=O)[C@H](C)NC(=O)[C@@H](N)CCCCN)C(=O)N[C@@H](C)C(=O)N[C@@H](Cc1ccccc1)C(=O)N1CCC[C@H]1C(=O)N[C@H](C(=O)NCC(=O)N[C@@H](CCCN=C(N)N)C(=O)N[C@H](C(=O)N[C@@H](Cc1cnc[nH]1)C(=O)N[C@@H](CCCN=C(N)N)C(=O)N[C@@H](CC(C)C)C(=O)N[C@@H](CC(C)C)C(=O)N[C@@H](CCCN=C(N)N)C(=O)N[C@@H](CCCCN)C(=O)O)C(C)C)C(C)C` [KAGLAFPVGRVHRLLRK], for which the MIC in assay [8] stood at 133 µM (≈ 255 µg/mL).
